The experiment addresses T1, hCRTH2 (Homo sapiens, UniProt Q9Y5Y4).
T1 sequence (Q9Y5Y4 1-395): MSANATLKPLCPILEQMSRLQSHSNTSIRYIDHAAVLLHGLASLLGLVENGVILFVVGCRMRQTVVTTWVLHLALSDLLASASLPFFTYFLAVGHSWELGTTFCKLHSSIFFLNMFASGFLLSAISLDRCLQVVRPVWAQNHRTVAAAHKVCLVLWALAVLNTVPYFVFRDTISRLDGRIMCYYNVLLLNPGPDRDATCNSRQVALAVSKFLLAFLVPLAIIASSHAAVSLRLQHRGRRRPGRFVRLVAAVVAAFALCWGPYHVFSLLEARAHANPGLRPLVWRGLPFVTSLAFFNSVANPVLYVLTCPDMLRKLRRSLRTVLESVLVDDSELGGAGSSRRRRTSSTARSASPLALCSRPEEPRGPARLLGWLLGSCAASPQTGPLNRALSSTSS
Details: expressed in transfected cells; host or cells: HEK (human embryonic kidney) cells expressing hCRTH2. As to conditions: Radioligand Binding Assay B. Here is the method: The filters were then washed with 4 mL of the same buffer and residual radioligand bound to the filter was determined by liquid scintillation counting following equilibration in 25 μl Ultima Gold F™ (Unifilter) (Packard).

Setting [1] is: 0.7 nM [3H]PGD2, HEK-hCRTH2 membranes.

A word on the Ki: it is a measure of affinity in units of concentration, obtained from inhibition or displacement. Read a high Ki as weaker binding.

Where two headings read alike, the source gives them in different places.

The compound `CN(C(=O)/C=C/C(=O)O)C1c2ccccc2N(C(=O)c2ccc(OC(F)(F)F)cc2)C2CCCC12` (racemic) [17Q, (2E)-4-[[cis,cis-2,3,3a,4,9,9a-hexahydro-4-[4-(trifluoromethoxy)benzoyl]-1H-cyclopenta[b]quinolin-9-yl]methylamino]-4-oxo-2-butenoic acid] registered a Ki (Table B, rated A-D) of 201 to 7500 nM.

In turn, `CN(C(=O)CCCC(=O)O)C1c2ccccc2N(C(=O)c2ccc(OC(F)(F)F)cc2)C2CCCC12` (racemic) [17o, 5-[[cis,cis-2,3,3a,4,9,9a-hexahydro-4-[4-(trifluoromethoxy)benzoyl]-1H-cyclopenta[b]quinolin-9-yl]methylamino]-5-oxopentanoic acid] returned a Ki (Table B, rated A-D) of 201 to 7500 nM.

As to `O=C(O)CCC(=O)N(C1CC1)C1c2ccccc2N(C(=O)OCc2ccc(Cl)cc2)C2CCCC21` (racemic) [21A, 4-{[cis, cis-4-{[(4-chlorobenzyl)oxy]carbonyl}-2,3,3a,4,9,9a-hexahydro-1H-cyclopenta[b]quinolin-9-yl](cyclopropyl)amino}-4-oxobutanoic acid], the Ki was 45.7 nM under setting [1] and 20.1 to 200 nM (Table B, rated A-D).

On to `O=C(O)CCC(=O)N(C1CC1)C1c2ccccc2N(C(=O)Oc2ccc(F)cc2)C2CCCC21` (racemic) [21B, 4-(cyclopropyl{cis, cis-4-[(4-fluorophenoxy)carbonyl]-2,3,3a,4,9,9a-hexahydro-1H-cyclopenta[b]quinolin-9-yl}amino)-4-oxobutanoic acid], for which, for the setting “Table B, rated A-D”, the Ki was 201 to 7500 nM.

Regarding `O=C(O)CCC(=O)N(C1CC1)C1c2ccccc2N(C(=O)OCc2ccc3ccccc3c2)C2CCCC21` (racemic) [21C, 4-(cyclopropyl{cis, cis-4-[(naphthalen-2-ylmethoxy)carbonyl]-2,3,3a,4,9,9a-hexahydro-1H-cyclopenta[b]quinolin-9-yl}amino)-4-oxobutanoic acid], the Ki (Table B, rated A-D) lay within 20.1 to 200 nM.

`O=C(O)CCC(=O)N(C1CC1)C1c2ccccc2N(C(=O)OCc2ccccc2F)C2CCCC21` (racemic) [21D, 4-{cyclopropyl[cis, cis-4-{[(2-fluorobenzyl)oxy]carbonyl}-2,3,3a,4,9,9a-hexahydro-1H-cyclopenta[b]quinolin-9-yl]amino}-4-oxobutanoic acid] displayed a Ki (Table B, rated A-D) of 20.1 to 200 nM.

`COc1ccc(COC(=O)N2c3ccccc3C(N(C(=O)CCC(=O)O)C3CC3)C3CCCC32)cc1` (racemic) [21E, 4-{cyclopropyl[cis, cis-4-{[(4-methoxybenzyl)oxy]carbonyl}-2,3,3a,4,9,9a-hexahydro-1H-cyclopenta[b]quinolin-9-yl]amino}-4-oxobutanoic acid] registered a Ki (Table B, rated A-D) of 20.1 to 200 nM.

`CC(OC(=O)N1c2ccccc2C(N(C(=O)CCC(=O)O)C2CC2)C2CCCC21)c1ccccc1` (racemic) [21F, 4-(cyclopropyl{cis, cis-4-[(1-phenylethoxy)carbonyl]-2,3,3a,4,9,9a-hexahydro-1H-cyclopenta[b]quinolin-9-yl}amino)-4-oxobutanoic acid] registered a Ki (Table B, rated A-D) of 20.1 to 200 nM.

`O=C(O)CCC(=O)N(C1CC1)C1c2ccccc2N(C(=O)OCc2ccccn2)C2CCCC21` (racemic) [21G, 4-(cyclopropyl{cis, cis-4-[(pyridin-2-ylmethoxy)carbonyl]-2,3,3a,4,9,9a-hexahydro-1H-cyclopenta[b]quinolin-9-yl}amino)-4-oxobutanoic acid] came in with an inhibition constant Ki (Table B, rated A-D) of 20.1 to 200 nM.

For the setting “Table B, rated A-D”, `CC(C)(C)COC(=O)N1c2ccccc2C(N(C(=O)CCC(=O)O)C2CC2)C2CCCC21` (racemic) [21H, 4-(cyclopropyl{cis, cis-4-[(2,2-dimethylpropoxy)carbonyl]-2,3,3a,4,9,9a-hexahydro-1H-cyclopenta[b]quinolin-9-yl}amino)-4-oxobutanoic acid] showed a Ki of 201 to 7500 nM.

Under “Table B, rated A-D”, `O=C(O)CCC(=O)N(C1CC1)C1c2ccccc2N(C(=O)OCc2ccncc2)C2CCCC21` (racemic) [21J, 4-(cyclopropyl{cis, cis-4-[(pyridin-4-ylmethoxy)carbonyl]-2,3,3a,4,9,9a-hexahydro-1H-cyclopenta[b]quinolin-9-yl}amino)-4-oxobutanoic acid] returned a Ki of 201 to 7500 nM.

As for `O=C(O)CCC(=O)N(C1CC1)C1c2ccccc2N(C(=O)Oc2ccccc2)C2CCCC21` (racemic) [21K, 4-{cyclopropyl[cis, cis-4-(phenoxycarbonyl)-2,3,3a,4,9,9a-hexahydro-1H-cyclopenta[b]quinolin-9-yl]amino}-4-oxobutanoic acid], the inhibition constant (Ki) was 905 nM under setting [1] and 201 to 7500 nM (Table B, rated A-D).

Under “Table B, rated A-D”, `O=C(O)CCC(=O)N(C1CC1)C1c2ccccc2N(C(=O)OCc2ccc(Cl)c(Cl)c2)C2CCCC21` (racemic) [21L, 4-{cyclopropyl[cis, cis-4-{[(3,4-dichlorobenzyl)oxy]carbonyl}-2,3,3a,4,9,9a-hexahydro-1H-cyclopenta[b]quinolin-9-yl]amino}-4-oxobutanoic acid] displayed a Ki of 20.1 to 200 nM.

In turn, `O=C(O)CCC(=O)N(C1CC1)C1c2ccccc2N(C(=O)OCC2CC2)C2CCCC21` (racemic) [21i, 4-(cyclopropyl{cis, cis-4-[(cyclopropylmethoxy)carbonyl]-2,3,3a,4,9,9a-hexahydro-1H-cyclopenta[b]quinolin-9-yl}amino)-4-oxobutanoic acid] yielded a Ki (Table B, rated A-D) of 20.1 to 200 nM.

Regarding `O=C(O)CCC(=O)N(C1CC1)C1c2ccccc2N(C(=O)n2ccnc2)C2CCCC21` (racemic) [23B, 4-{cyclopropyl[cis, cis-4-(1H-imidazol-1-ylcarbonyl)-2,3,3a,4,9,9a-hexahydro-1H-cyclopenta[b]quinolin-9-yl]amino}-4-oxobutanoic acid], the Ki (Table B, rated A-D) is 20.1 to 200 nM.

On to `O=C(O)CCC(=O)N(C1CC1)C1c2ccccc2N(C(=O)NCc2ccccc2)C2CCCC21` (racemic) [23C, 4-{[cis, cis-4-(benzylcarbamoyl)-2,3,3a,4,9,9a-hexahydro-1H-cyclopenta[b]quinolin-9-yl](cyclopropyl)amino}-4-oxobutanoic acid], for which, under “Table B, rated A-D”, the Ki is 20.1 to 200 nM.

In the case of `CN(C(=O)N1c2ccccc2C(N(C(=O)CCC(=O)O)C2CC2)C2CCCC21)c1ccccc1` (racemic) [23D, 4-(cyclopropyl{cis, cis-4-[methyl(phenyl)carbamoyl]-2,3,3a,4,9,9a-hexahydro-1H-cyclopenta[b]quinolin-9-yl}amino)-4-oxobutanoic acid], for the setting “Table B, rated A-D”, the Ki was 20.1 to 200 nM.

The compound `O=C(O)CCC(=O)N(C1CC1)C1c2ccccc2N(S(=O)(=O)c2ccc(OC(F)(F)F)cc2)C2CCCC12` (racemic) [24D, 4-[cyclopropyl[cis,cis-2,3,3a,4,9,9a-hexahydro-4-[[4-(trifluoromethoxy)phenyl]sulfonyl]-1H-cyclopenta[b]quinolin-9-yl]amino]-4-oxobutanoic acid] registered a Ki (Table B, rated A-D) of 20.1 to 200 nM.

For the setting “Table B, rated A-D”, `O=C(O)CCC(=O)N(C1CC1)C1c2ccccc2N(c2nnc(-c3ccccc3)o2)C2CCCC21` (racemic) [36A, racemic 4-{cyclopropyl[cis, cis-4-(5-phenyl-1,3,4-oxadiazol-2-yl)-2,3,3a,4,9,9a-hexahydro-1H-cyclopenta[b]quinolin-9-yl]amino}-4-oxobutanoic acid] showed a Ki of 20.1 to 200 nM.

With `O=C(O)CCC(=O)N(C1CC1)C1c2ccccc2N(c2nnc(-c3ccc(F)cc3)o2)C2CCCC21` (racemic) [36B, racemic 4-(cyclopropyl{cis, cis-4-[5-(4-fluorophenyl)-1,3,4-oxadiazol-2-yl]-2,3,3a,4,9,9a-hexahydro-1H-cyclopenta[b]quinolin-9-yl}amino)-4-oxobutanoic acid], for the setting “Table B, rated A-D”, the Ki was 20.1 to 200 nM.

Regarding `O=C(O)CCC(=O)N(C1CC1)C1c2ccccc2N(c2nnc(-c3ccc(OC(F)(F)F)cc3)o2)C2CCCC21` (racemic) [36C, racemic 4-{cyclopropyl[cis, cis-4-{5-[4-trifluoro-(methoxy)phenyl]-1,3,4-oxadiazol-2-yl}-2,3,3a,4,9,9a-hexahydro-1H-cyclopenta[b]quinolin-9-yl]amino}-4-oxobutanoic acid], the Ki (Table B, rated A-D) was 201 to 7500 nM.

With `CC(CC(=O)N(C1CC1)C1c2ccccc2N(C(=O)OCc2ccccc2)C2CCCC21)C(=O)O` (racemic) [compound 10, 4-[{cis,cis-4-[(Benzyloxy)carbonyl]-2,3,3a,4,9,9a-hexahydro-1H-cyclopenta[b]quinolin-9-yl}(cyclopropyl)amino]-2-methyl-4-oxobutanoic acid], the Ki reads like this: under setting [1], 514 nM; (Table B, rated A-D) 201 to 7500 nM.

For `COC(=O)CCC(=O)N(c1ccccc1)[C@@H]1c2ccccc2N(C(=O)OCc2ccccc2)[C@@H]2CCC[C@@H]21` (racemic) [compound 12, Benzyl cis,cis-9-[(4-methoxy-4-oxobutanoyl)(phenyl)amino]-1,2,3,3a,9,9a-hexahydro-4H-cyclopenta[b]quinoline-4-carboxylate], for the setting “Table B, rated A-D”, the Ki lay within 201 to 7500 nM.

For the setting “Table B, rated A-D”, `CCN(C(=O)CCC(=O)O)[C@@H]1c2ccccc2N(C(=O)OCc2ccccc2)[C@@H]2CCC[C@H]12` (racemic) [compound 13, 4-[{cis,cis-4-[(Benzyloxy)carbonyl]-2,3,3a,4,9,9a-hexahydro-1H-cyclopenta[b]quinolin-9-yl}(ethyl)amino]-4-oxobutanoic acid] returned a Ki of 5.1 to 20 nM.

Compound `O=C(O)CCC(=O)N(C1CC1)[C@@H]1c2ccccc2N(C(=O)c2ccccc2)[C@@H]2CCC[C@@H]21` (racemic) [compound 14, 4-[[cis,cis-4-Benzoyl-2,3,3a,4,9,9a-hexahydro-1H-cyclopenta[b]quinolin-9-yl](cyclopropyl)amino]-4-oxobutanoic acid] had a Ki (Table B, rated A-D) of 5.1 to 20 nM.
